pIC50: −log10 of the molar value.

Consider 23 compounds from patent publication US11084800B2 (Achillion Pharmaceuticals, Inc., priority 2017, dated 2021).

The test addresses Human Factor D (Homo sapiens (Human), UniProt P00746). In words: Human Factor D Assay. Type of test: biochemical. The conditions noted are these: Table 6; Factor D 80 nM, substrate Z-L-Lys-SBz; read-out: IC50. In a few lines:
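Serum-purified Factor D (80 nM final) preincubated 5 min at room temperature with compound in 50 mM Tris, 1 M NaCl, pH 7.5. Z-L-Lys-SBz and DTNB added at 100 μM each; A405 followed every 30 s for 30 min. IC50 from nonlinear regression of rates versus concentration.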

Human Factor D, sequence (P00746 26-253): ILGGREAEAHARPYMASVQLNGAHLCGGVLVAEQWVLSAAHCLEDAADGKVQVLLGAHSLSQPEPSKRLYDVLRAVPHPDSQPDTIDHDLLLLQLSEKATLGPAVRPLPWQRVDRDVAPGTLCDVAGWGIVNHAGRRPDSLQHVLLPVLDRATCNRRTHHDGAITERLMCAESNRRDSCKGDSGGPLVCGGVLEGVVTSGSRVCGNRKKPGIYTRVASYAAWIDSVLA

With `CC(=O)c1nn(CC(=O)N2[C@H]3C[C@@]3(CN(C)C)C[C@H]2C(=O)Nc2nc(Br)ccc2C)c2ccc(-c3cnc(C)nc3)c(F)c12` [Compound 156, (1S,3S,5S)-2-(2-(3-Acetyl-4-fluoro-5-(2-methylpyrimidin-5-yl)-1H-indazol-1-yl)acetyl)-N-(6-bromo-3-methylpyridin-2-yl)-5-((dimethylamino)methyl)-2-azabicyclo[3.1.0]hexane-3-carboxamide], the pIC50 (usually −log10 of the IC50, conventionally taken in molar units) is < 5.00. For `CC(=O)c1nn(CC(=O)N2[C@H](C(=O)Nc3nc(Br)ccc3C)C[C@@]3(COCCN(C)C)C[C@@H]23)c2ccc(-c3cnc(C)nc3)cc12` [Compound 157] the value was > 6.00. The figure for `CC(=O)c1nn(CC(=O)N2C[C@H]3C[C@H]3[C@H]2C(=O)Nc2nc(Br)c(F)cc2C)c2cnc(-c3cnc(C)nc3)cc12` [Compound 172, (1R,2S,5S)-3-(2-(3-Acetyl-5-(2-methylpyrimidin-5-yl)-1H-pyrazolo[3,4-c]pyridin-1-yl)acetyl)-N-(6-bromo-5-fluoro-3-methylpyridin-2-yl)-3-azabicyclo[3.1.0]hexane-2-carboxamide] is > 6.00; for `CC(=O)c1nn(CC(=O)N2[C@H](C(=O)Nc3nc(Br)ccc3C)C[C@@]3(C(N)=O)C[C@@H]23)c2c(C)cc(-c3cnc(C)nc3)cc12` [Compound 173, (1R,3S,5S)-2-(2-(3-acetyl-7-methyl-5-(2-methylpyrimidin-5-yl)-1H-indazol-1-yl)acetyl)-N3-(6-bromo-3-methylpyridin-2-yl)-2-azabicyclo[3 .1.0]hexane-3,5-dicarboxamide] it is < 5.00. For `CC(=O)c1nn(CC(=O)N2[C@H](C(=O)Nc3nc(Br)ccc3C)C[C@@]3(C#N)C[C@@H]23)c2c(C)cc(-c3cnc(C)nc3)cc12` [Compound 174, (1R,3S,5S)-2-(2-(3-acetyl-7-methyl-5-(2-methylpyrimidin-5-yl)-1H-indazol-1-yl)acetyl)-N-(6-bromo-3-methylpyridin-2-yl)-5-cyano-2-azabicyclo[3.1.0]hexane-3-carboxamide] the value was < 5.00; for `CC(=O)c1nn(CC(=O)N2C[C@@H](C(F)(F)F)C[C@H]2C(=O)Nc2nc(Br)ccc2C)c2c(C)cc(-c3cnc(C)nc3)cc12` [Compound 175], > 6.00; for `CC(=O)c1nn(CC(=O)N2[C@H](C(=O)Nc3nc(Br)ccc3C)C[C@@]3(CN(CCF)CCF)C[C@@H]23)c2c(C)cc(-c3cnc(C)nc3)cc12` [Compound 176], > 6.00. Regarding `CC(=O)c1nn(CC(=O)N2[C@H](C(=O)Nc3nc(Br)ccc3CN3CC(F)(F)C3)C[C@@]3(C)C[C@@H]23)c2ccc(-c3cnc(C)nc3)cc12` [Compound 177, (1R,3S,5R)-2-(2-(3-Acetyl-5-(2-methylpyrimidin-5-yl)-1H-indazol-1-yl)acetyl)-N-(6-bromo-3-((3,3-difluoroazetidin-1-yl)methyl)pyridin-2-yl)-5-methyl-2-azabicyclo[3.1.0]hexane-3-carboxamide], the negative-log IC50 (pIC50) was > 6.00. The figure for `CC(=O)c1nn(CC(=O)N2[C@H](C(=O)Nc3nc(Br)c(F)cc3C)C[C@@]3(C)C[C@@H]23)c2ccc(-c3cnc(C)nc3)cc12` [Compound 178, (1R,3S,5R)-2-(2-(3-Acetyl-5-(2-methylpyrimidin-5-yl)-1H-indazol-1-yl)acetyl)-N-(6-bromo-5-fluoro-3-methylpyridin-2-yl)-5-methyl-2-azabicyclo[3.1.0]hexane-3-carboxamide] is > 6.00; for `CC(=O)c1nn(CC(=O)N2[C@H](C(=O)Nc3nc(Br)ccc3C)C[C@@]3(C)C[C@@H]23)c2ccc(-c3cnc4cc(C)nn4c3)cc12` [Compound 180, (1R,3S,5R)-2-(2-(3-Acetyl-5-(2-methylpyrazolo[1,5-a]pyrimidin-6-yl)-1H-indazol-1-yl)acetyl)-N-(6-bromo-3-methylpyridin-2-yl)-5-methyl-2-azabicyclo[3.1.0]hexane-3-carboxamide] it is > 6.00.

`CC(=O)c1nn(CC(=O)N2[C@H](C(=O)Nc3nc(Br)c(F)cc3C)C[C@@]3(C)C[C@@H]23)c2ncc(-c3cnc(C)nc3)cc12` [Compound 182, (1R,3S,5R)-2-(2-(3-Acetyl-5-(2-methylpyrimidin-5-yl)-1H-pyrazolo[3,4-b]pyridin-1-yl)acetyl)-N-(6-bromo-5-fluoro-3-methylpyridin-2-yl)-5-methyl-2-azabicyclo[3.1.0]hexane-3-carboxamide]: the pIC50 was > 6.00. For `CC(=O)c1nn(CC(=O)N2C[C@H]3C[C@H]3[C@H]2C(=O)Nc2nc(Br)ccc2C)c2ncc(-c3cnc(C)nc3)cc12` [Compound 183, (1R,2S,5S)-3-(2-(3-Acetyl-5-(2-methylpyrimidin-5-yl)-1H-pyrazolo[3,4-b]pyridin-1-yl)acetyl)-N-(6-bromo-3-methylpyridin-2-yl)-3-azabicyclo[3.1.0]hexane-2-carboxamide], the pIC50 is > 6.00. For `CC(=O)c1nn(CC(=O)N2[C@H](C(=O)Nc3nc(Br)ccc3C)C[C@@]3(C)C[C@@H]23)c2ccc(-c3cnc(C)nc3)nc12` [Compound 184, (1R,3S,5R)-2-(2-(3-Acetyl-5-(2-methylpyrimidin-5-yl)-1H-pyrazolo[4,3-b]pyridin-1-yl)acetyl)-N-(6-bromo-3-methylpyridin-2-yl)-5-methyl-2-azabicyclo[3.1.0]hexane-3-carboxamide] the value was 5.00 to 6.00; for `CC(=O)c1nn(CC(=O)N2[C@H](C(=O)Nc3nc(Br)c(F)cc3C)C[C@@]3(C)C[C@@H]23)c2ccc(-c3cnc(C)nc3)nc12` [Compound 185, (1R,3S,5R)-2-(2-(3-Acetyl-5-(2-methylpyrimidin-5-yl)-1H-pyrazolo[4,3-b]pyridin-1-yl)acetyl)-N-(6-bromo-5-fluoro-3-methylpyridin-2-yl)-5-methyl-2-azabicyclo[3.1.0]hexane-3-carboxamide], 5.00 to 6.00; for `CC(=O)c1nn(CC(=O)N2[C@H](C(=O)Nc3nc(Br)cc(C)c3C(F)F)C[C@@]3(C)C[C@@H]23)c2ccc(-c3cnc(C)nc3)cc12` [Compound 187, (1R,3S,5R)-2-(2-(3-Acetyl-5-(2-methylpyrimidin-5-yl)-1H-indazol-1-yl)acetyl)-N-(6-bromo-3-(difluoromethyl)-4-methylpyridin-2-yl)-5-methyl-2-azabicyclo[3.1.0]hexane-3-carboxamide], > 6.00. The figure for `C=CCCS(=O)(=O)N(C)C[C@@]12C[C@@H](C(=O)Nc3nc(Br)ccc3C=C)N(C(=O)Cn3nc(C(C)=O)c4cc(-c5cnc(C)nc5)ccc43)[C@@H]1C2` [Compound 188, (1R,3S,5R)-2-(2-(3-Acetyl-5-(2-methylpyrimidin-5-yl)-1H-indazol-1-yl)acetyl)-N-(6-bromo-3-vinylpyridin-2-yl)-5-((N-methylbut-3-en-1-ylsulfonamido)methyl)-2-azabicyclo[3.1.0]hexane-3-carboxamide] is > 6.00; for `CC(=O)c1nn(CC(=O)N2[C@H](C(=O)Nc3nc(Br)ccc3CN3CCOCC3)C[C@@]3(C)C[C@@H]23)c2cnc(-c3cnc(C)nc3)cc12` [Compound 192, (1R,3S,5R)-2-(2-(3-Acetyl-5-(2-methylpyrimidin-5-yl)-1H-pyrazolo[3,4-c]pyridin-1-yl)acetyl)-N-(6-bromo-3-(morpholinomethyl)pyridin-2-yl)-5-methyl-2-azabicyclo[3.1.0]hexane-3-carboxamide] it is > 6.00; for `COc1ncc(-c2cc3c(C(C)=O)nn(CC(=O)N4[C@H](C(=O)Nc5nc(Br)ccc5C)C[C@@]5(C)C[C@@H]45)c3cn2)cn1` [Compound 193, (1R,3S,5R)-2-(2-(3-Acetyl-5-(2-methoxypyrimidin-5-yl)-1H-pyrazolo[3,4-c]pyridin-1-yl)acetyl)-N-(6-bromo-3-methylpyridin-2-yl)-5-methyl-2-azabicyclo[3.1.0]hexane-3-carboxamide] it is > 6.00.

Consider `CC(=O)c1nn(CC(=O)N2[C@H](C(=O)Nc3nc(Br)ccc3C)C[C@@]3(C)C[C@@H]23)c2cnc(-c3cnc(N)nc3)cc12` [Compound 194, (1R,3S,5R)-2-(2-(3-Acetyl-5-(2-aminopyrimidin-5-yl)-1H-pyrazolo[3,4-c]pyridin-1-yl)acetyl)-N-(6-bromo-3-methylpyridin-2-yl)-5-methyl-2-azabicyclo[3.1.0]hexane-3-carboxamide], for which the pIC50 was > 6.00. For `CC(=O)c1nn(CC(=O)N2[C@H](C(=O)Nc3nc(Br)c(F)cc3C)C[C@@]3(C)C[C@@H]23)c2cnc(-c3cnc(N)nc3)cc12` [Compound 195, (1R,3S,5R)-2-(2-(3-Acetyl-5-(2-aminopyrimidin-5-yl)-1H-pyrazolo[3,4-c]pyridin-1-yl)acetyl)-N-(6-bromo-5-fluoro-3-methylpyridin-2-yl)-5-methyl-2-azabicyclo[3.1.0]hexane-3-carboxamide] the value was > 6.00; for `CC(=O)c1nn(CC(=O)N2[C@H](C(=O)Nc3nc(OC(F)(F)F)ccc3C)C[C@@]3(C)C[C@@H]23)c2ccc(-c3cnc(C)nc3)cc12` [Compound 196, (1R,3S,5R)-2-(2-(3-Acetyl-5-(2-methylpyrimidin-5-yl)-1H-indazol-1-yl)acetyl)-5-methyl-N-(3-methyl-6-(trifluoromethoxy)pyridin-2-yl)-2-azabicyclo[3.1.0]hexane-3-carboxamide], > 6.00; for `CC(=O)c1nn(CC(=O)N2[C@H](C(=O)Nc3nc(Br)ccc3C)C[C@@]3(c4cnco4)C[C@@H]23)c2ccc(-c3cnc(C)nc3)cc12` [Compound 197, (1R,3S,5S)-2-(2-(3-Acetyl-5-(2-methylpyrimidin-5-yl)-1H-indazol-1-yl)acetyl)-N-(6-bromo-3-methylpyridin-2-yl)-5-(oxazol-5-yl)-2-azabicyclo[3.1.0]hexane-3-carboxamide], > 6.00. Regarding `COc1ncc(-c2cc3c(C(C)=O)nn(CC(=O)N4[C@H](C(=O)Nc5nc(Br)c(F)cc5C)C[C@@]5(C)C[C@@H]45)c3cn2)cn1` [Compound 198, (1R,3S,5R)-2-(2-(3-Acetyl-5-(2-methoxypyrimidin-5-yl)-1H-pyrazolo[3,4-c]pyridin-1-yl)acetyl)-N-(6-bromo-5-fluoro-3-methylpyridin-2-yl)-5-methyl-2-azabicyclo[3.1.0]hexane-3-carboxamide], the pIC50 is > 6.00.
